Measured values reported in ChEMBL document CHEMBL5154803, “Spermine-Conjugated Short Proline-Rich Lipopeptides as Broad-Spectrum Intracellular Targeting Antibacterial Agents” (J Med Chem, 2022).
≈ marks a conversion by molar mass, not a printed value. Calls of active or inactive are those of the source. The calls are words filed in the database; no cut-off is given here. Where a SMILES comes first, the peptide text is derived from it. The star is where a group is joined. Lauroyl = CCCCCCCCCCCC(=O)*; Decanoyl = CCCCCCCCCC(=O)*; Spermine = NCCCNCCCCNCCCN*

Legend:
Staphylococcus aureus [1] = test: Additive antibacterial activity against MDR-methicillin-resistant Staphylococcus aureus ATCC BAA-44 assessed as chloramphenicol MIC by checkerboard assay; type: functional
Staphylococcus aureus [2] = test: Additive antibacterial activity against MDR-methicillin-resistant Staphylococcus aureus ATCC BAA-44 assessed as fractional inhibitory concentration index in presence of chloramphenicol by checkerboard assay; type: functional
[3] = target: Bacterial 70S ribosome (Bacteria) (UniProt P0A7V0+P60723+P0AG67+P0A7R5+P0A7R9+P0A7S3+P0A7S9+P0AG59+P0ADZ4+P0A7T3+P0AG63+P0A7T7+P0A7U3+P0A7U7+P68679+P0A7V3+P0A7V8+P0A7W1+P02358+P02359+P0A7W7+P0A7X3+P0A7J3+P0A7J7+P0AA10+P0ADY3+P02413+P0ADY7+P0AG44+P0C018+P0A7K6+P0A7L0+P0A7L3+P0AG48+P61175+P0ADZ0+P60624+P68919+P0A7L8+P0A7M2+P0A7M6+P60422+P0AG51+P0A7N1+P0A7M9+P0A7N4+P0A7N9+P0A7P5+P0A7Q1+Q2EEQ2+P0A7Q6+P60438+P62399+P0AG55+P0A7K2); test: Inhibition of 70S ribosome-mediated protein synthesis in Escherichia coli at 1XMIC incubated for 1 hr by renilla luciferase based luminescence assay; type: subcellular
[4] = tested on: Staphylococcus epidermidis; test: Antibacterial activity against methicillin-resistant Staphylococcus epidermidis ATCC 51625 assessed as reduction in bacterial growth measured after 18 hrs by broth microdilution method; type: functional
[5] = Cytotoxicity against human THP-1 cells assessed as cell viability at 50 uM by MTT assay; type: toxicity, cell-based; settings: read-out: Activity
Staphylococcus aureus [6] = test: Synergistic antibacterial activity against MDR-methicillin-resistant Staphylococcus aureus ATCC BAA-44 assessed as neomycin MIC by checkerboard assay; type: functional
Staphylococcus aureus [7] = test: Additive antibacterial activity against MDR-methicillin-resistant Staphylococcus aureus ATCC BAA-44 assessed as rifampicin MIC by checkerboard assay; type: functional
Escherichia coli = test: Bactericidal activity against Escherichia coli ATCC 25922 assessed as log reduction of bacterial growth at 5XMIC incubated for 2 hrs followed by plating on MHII agar pate for 24 hrs; type: functional; settings: time 26 hrs
Cell membrane [8] = test: Disruption of bacterial cell membrane in Escherichia coli ATCC 25922 assessed as proportion of bacteria with damaged cell membrane at 1X MIC incubated for 1 hr by PI staining based flow cytometric analysis (Rvb =0.7%); type: subcellular
Staphylococcus aureus [9] = test: Additive antibacterial activity against MDR-methicillin-resistant Staphylococcus aureus ATCC BAA-44 assessed as fold change in chloramphenicol MIC by checkerboard assay; type: functional
Staphylococcus aureus [10] = test: In vivo antibacterial activity against Staphylococcus aureus ATCC 25923 infected in BALB/c mouse model assessed as reduction of bacterial load in spleen at 5 mg/kg, ip administered as single dose measured after 24 hrs by colony counting based analysis (reference value: 6X10^3 CFU); type: functional
[11] = Cytotoxicity against human THP-1 cells assessed as cell viability at 100 uM by MTT assay; type: toxicity, cell-based; settings: read-out: Activity
Staphylococcus aureus [12] = test: Synergistic antibacterial activity against MDR-methicillin-resistant Staphylococcus aureus ATCC BAA-44 assessed as ampicillin MIC by checkerboard assay; type: functional
Staphylococcus aureus [13] = test: Antibacterial activity against MDR-methicillin-resistant Staphylococcus aureus ATCC BAA-44 assessed as reduction in bacterial growth measured after 18 hrs by broth microdilution method; type: functional
Staphylococcus aureus [14] = test: Synergistic antibacterial activity against MDR-methicillin-resistant Staphylococcus aureus ATCC BAA-44 assessed as chloramphenicol MIC by checkerboard assay; type: functional
Staphylococcus aureus [15] = test: In vivo antibacterial activity against Staphylococcus aureus ATCC 25923 infected in BALB/c mouse model assessed as reduction of bacterial load in liver at 5 mg/kg, ip administered as single dose measured after 24 hrs by colony counting based analysis (reference value: 8.1X10^4 CFU); type: functional
Staphylococcus aureus [16] = test: Synergistic antibacterial activity against MDR-methicillin-resistant Staphylococcus aureus ATCC BAA-44 assessed as fractional inhibitory concentration index in presence of chloramphenicol by checkerboard assay; type: functional
Cell membrane [17] = test: Disruption of bacterial cell membrane in Escherichia coli ATCC 25922 assessed as blebbing on the surface of the bacteria at 5XMIC by SEM analysis; type: subcellular

Row | SMILES | MIC (Staphylococcus aureus [1]) [mg/L] | fractional inhibitory concentration index (FICI) (Staphylococcus aureus [2]) | inhibition [3] | MIC [4] [µM] | viability at 50 µM [5] [%] | MIC (Staphylococcus aureus [6]) [mg/L] | MIC (Staphylococcus aureus [7]) [mg/L] | Activity (Escherichia coli) [log10CFU/ml] | Activity (Cell membrane [8]) [%] | fold change (FC) (Staphylococcus aureus [9]) | Activity (Staphylococcus aureus [10]) | viability at 100 µM [11] [%] | MIC (Staphylococcus aureus [12]) [mg/L] | MIC (Staphylococcus aureus [13]) [µM] | MIC (Staphylococcus aureus [14]) [mg/L] | Activity (Staphylococcus aureus [15]) | fractional inhibitory concentration index (FICI) (Staphylococcus aureus [16]) | Activity (Cell membrane [17])
1 | CCCCCCCCCC(=O)N1CCC[C@H]1C(=O)N[C@@H](CCCNC(=N)N)C(=O)N1CCC[C@H]1C(=O)N[C@@H](CCCNC(=N)N)C(=O)N1CCC[C@H]1C(=O)N1CCC[C@H]1C(=O)N[C@@H](CCCNC(=N)N)C(=O)NCCCNCCCCNCCCN (Decanoyl-PRPRPPR-Spermine) | 1000 | 2 | Active | 3.1 (≈ 3.76 µg/mL) | 94 | 7.81 | 0.625 | >3 | 6.11 | 1 | <4 10^2CFU | 80 | 7.81 | 3.1 (≈ 3.76 µg/mL) | 1000 | <4 10^2CFU | 2 | –
2 | CCCCCCCCCCCC(=O)N1CCC[C@H]1C(=O)N[C@@H](CCCNC(=N)N)C(=O)N1CCC[C@H]1C(=O)N[C@@H](CCCNC(=N)N)C(=O)N1CCC[C@H]1C(=O)N1CCC[C@H]1C(=O)N[C@@H](CCCNC(=N)N)C(=O)NCCCNCCCCNCCCN (Lauroyl-PRPRPPR-Spermine) | – | – | Active | 1.5 (≈ 1.86 µg/mL) | 79 | 7.81 | 0.625 | >3 | 7.09 | – | <4 10^2CFU | 65 | 3.9 | 1.5 (≈ 1.86 µg/mL) | 250 | <4 10^2CFU | 0.5 | Active
